According to patent US20160152566A1, “TRICYCLIC PYRROLE COMPOUNDS, THEIR PREPARATION AND USE IN MEDICAMENTS” (INSTITUTO BIOMAR, S.A., priority 2013, published 2016):

How the values were obtained:
HT1080 MMP-9 = experiment: Gelatin zymography, HT1080 cells, MMP-9; format: cell-based, Human; details: 24 h
BAE cells [1] = experiment: Tube formation with Cytodex beads on Matrigel; format: cell-based, Bovine; details: 48 h
Method: 3×10^4 BAE cells, were cultured with Cytodex beads, and allowed to adhere to them. The beads were added in 200 μL DMEM per well to a 96-well plate that has been previously prepared as follows: different amounts of the compound AD0157 were dispensed in a 96 well plate. Matrigel (50 μL) at 4° C. was used to coat each well of and allowed to polymerise at 37° C. for a minimum of 30 min. After polymerization, the beads carrying the endothelial cells were added to the wells. The plate was incubated at 37° C. in a humidified chamber with 5% CO2. After incubation for 48 h, cultures were observed using an optical microscope. Each concentration was tested in triplicate. Inhibition of tube formation was obtained at 9.3 uM.

[2] = system: chick chorioallantoic membrane; experiment: Chick chorioallantoic membrane (CAM) angiogenesis assay; format: in vivo; details: 48 h
Method: Fertilised chick eggs were incubated horizontally at 38° C. in a humidified incubator, windowed by day 3 of incubation, and processed by day 8. The tested compound stock solution was added to a 1.2% solution of methylcellulose in water, and 10 μL drops of this solution were allowed to dry on a teflon-coated surface in a laminar flow hood. Then, the methylcellulose discs were implanted on the CAM, the eggs were sealed with adhesive tape and returned to the incubator for 48 h. Negative controls were always made with DMSO mixed with the methylcellulose. After the reincubation, the CAM was examined under a stereomicroscope. The assay was scored as positive when two independent observers reported a significant reduction of vessels in the treated area.

HT1080 MMP-2 = experiment: Gelatin zymography, HT1080 cells, MMP-2; format: cell-based, Human; details: 24 h
Method: BAE or HT1080 cells were grown in 6-well plates at 75% subconfluency in 6-well plates, medium was aspirated, cells were washed twice with phosphate-buffered saline (PBS) and each well received 1.5 ml of DMEM/0.1% BSA containing 200 KIU of Aprotinin/mL. Additionally, some wells received the indicated concentration of AD0157. After 24 h of incubation, conditioned media were collected. To obtain the cell extracts, the cells were washed twice with PBS and harvested by scrapping into 0.5 mL of 0.2% Triton X-100 in 0.1 M Tris/HCl containing 200 KIU aprotinin/mL. Media were centrifuged at 1000×g and 4° C. for 20 min, and used for zymography. Duplicates were used to determine cell number with a Coulter counter.
The gelatinolytic activity of MMP-2 delivered to the conditioned media and cell extracts were detected in gelatinograms. Samples were subjected to non-reducing SDS/PAGE as above but with gelatin (1 mg/mL) added to the 10% resolving gel. After electrophoresis, gels were washed twice with 50 mM Tris/HCl, pH 7.4, supplemented with 2% Triton X-100, and twice with 50 mM Tris/HCl, pH 7.4. […] Then, the gels were stained with Commassie blue R-250 and the bands of gelatinase activity could be detected as non-stained bands in a dark, stained background.
Quantitative analysis of zymograms and gelatinograms was performed with the Scion Image 4.0.3.2 Program.

BAE cells [3] = experiment: Capillary tube formation on Matrigel; format: cell-based, Bovine; details: BAECs, 7 h
Method: (§1) Matrigel (50 μL of about 10.5 mg/mL) at 4° C. was used to coat each well of a 96-well plate and allowed to polymerise at 37° C. for a minimum of 30 min. 5×10^4 BAE cells were added with 200 μL DMEM. Finally, different amounts of the Compound AD0157 were added and incubated at 37° C. in a humidified chamber with 5% CO2. After incubation for 7 h, cultures were observed (40× and 100× magnifications) and photographed with a NIKON inverted microscope DIAPHOT-TMD (Nikon, Tokyo, Japan). Each concentration was tested in duplicate, and two different observers evaluated the inhibition of tube formation. To check the viability of endothelial cells after the treatment with the compounds in this assay, BAE cells were incubated in 96-well plate in the same conditions employed for the tube formation assay. After 7 h, cell viability in comparison to control untreated cells was determined by the addition of MTT essentially as described for the cell growth assay.

BAE cells [4] = experiment: Viability (MTT) under tube formation conditions; format: cell-based, Bovine; details: 7 h, at the concentrations used to inhibit differentiation
Method: as §1

BAE cells [5] = experiment: MTT dye reduction cell growth assay, BAE cells; format: cell-based, Bovine; details: Bos taurus, 72 h, subconfluent BAE cells stimulated with 10% FBS, 3 days, read-out: IC50, growth of cultured BAE cells
Method: The 3-(4,5-dimethylthiazol-2-yl)-2,5 diphenyltetrazolium bromide (MIT; Sigma Chemical Co., St. Louis, Mo.) dye reduction assay in 96-well microplates was used. The assay is dependent on the reduction of MTT by mitochondrial dehydrogenases of viable cell to a blue formazan product, which can be measured spectrophotometrically.
3×10^3 BAE cells in a total volume of 100 μl of complete medium were incubated in each well with serial dilutions of the compound AD0157 obtained as explained above. After 3 days of incubation in the dark (37° C., 5% CO2 in a humid atmosphere), 10 μl of MTT (5 mg/ml in PBS) was added to each well and the plate was incubated for further 4 h (37° C.). The resulting formazan was dissolved in 150 μl of 0.04 N HCl-2 propanol and read at 550 nm. All determinations were carried out in triplicate, independent experiments. IC50 values were calculated as those concentrations of AD0157 yielding 50% cell survival, taking the values obtained for control as 100%.

[6] = system: zebrafish intersegmental vessels; experiment: Zebrafish embryo intersegmental vessel assay (TGfli1:EGFPy1); format: in vivo; details: 24 h
Method: Zebrafish embryos were generated by natural pairwise mating and maintained in embryo water at 28.5° C. […] Embryos were manually dechorionated with forceps at 24 h post-fertilization (hpf), they were arrayed in 96-well plate, one embryo per well, and incubated with 100 μl of the indicated concentrations of the tested compounds at 28.5° C. for 24 h. DMSO was used as both carrier of drugs and control. After incubation, fish embryos were anesthetized with tricaine (0.02%), placed on slides and examined under an epifluorescence Nikon microscope equipped with DS-L1 Nikon digital camera. Phenotypic changes were evaluated by two different observers.

[7] = system: endothelial and tumor cells; experiment: Hoechst staining of nuclear morphology; format: cell-based; details: 14 h treatment, endothelial and most types of tumor cells
Method: For Hoechst staining experiments, cells were seeded on 8-well chamber slides and grown to sub-confluence. After treatments for 14 h with the indicated concentrations of the compound in complete medium, cells were washed (PBS) and fixed (formalin solution, Sigma). Chamber slides were stained with Hoechst, mounted (DAKO Cytomation Fluorescent Mounting Medium, DAKO), and observed under a fluorescence microscope (Leica, TCS-NT).

Question: Which results are given for `C/C=C/C(=O)C1(O)CC2CC(C(=O)O)CC(C)C2C1C(=O)C1=C(/C=C/C)C(=O)C2(Cl)C3(CCCCCC)C(=O)NC(=O)C23C1=O` (stereo not shown) [AD0157]?
Answer: MMP-9 levels in HT1080 conditioned media and cellular extracts (HT1080 MMP-9): no effect; Concentration giving inhibition of tube formation (BAE cells [1]): 9.3 µM; % Inhibition ([2]; 0.1 nmol/CAM): 20%; Positive/total ([2]; 0.1 nmol/CAM): 1/5; % Inhibition ([2]; 0.5 nmol/CAM): 83%; Positive/total ([2]; 0.5 nmol/CAM): 5/6; % Inhibition ([2]; 1 nmol/CAM): 100%; Positive/total ([2]; 1 nmol/CAM): 6/6; % Inhibition ([2]; 5 nmol/CAM): 100%; Positive/total ([2]; 5 nmol/CAM): 6/6; MMP-2 levels in HT1080 conditioned media and cellular extracts (HT1080 MMP-2): no effect; Concentration giving complete inhibition of endothelial morphogenesis on Matrigel (BAE cells [3]): 5 µM; Concentration giving partial inhibition of endothelial morphogenesis on Matrigel (BAE cells [3]): 1 µM; Viability of endothelial cells (BAE cells [4]): did not affect the viability; IC50 (BAE cells [5]): 10.9 µM; % Inhibition ([6]; 5 μM): 25%; Positive/total ([6]; 5 μM): 5/20; % Inhibition ([6]; 10 μM): 48%; Positive/total ([6]; 10 μM): 12/25; % Inhibition ([6]; 25 μM): 85%; Positive/total ([6]; 25 μM): 17/20; Concentration inducing chromatin condensation [7]: above 5 μM
